Test results as given in the NIST ThermoML archive (doi:10.1021/je0301500).
± gives the expanded uncertainty stated by the source.

Legend:
[1] = 303.15 K; for surface tension liquid-gas: Ring tensiometer; for viscosity / mass density: 101.33 kPa, Liquid; for viscosity: Falling or rolling sphere viscometry; for mass density: Vibrating tube method
[2] = xn = mol fraction of the nth substance listed; conditions: 303.15 K; for surface tension liquid-gas: Ring tensiometer; for viscosity / mass density: 101.33 kPa, Liquid; for viscosity: Falling or rolling sphere viscometry; for mass density: Vibrating tube method

CCCC(=O)OCC [ethyl butanoate]
[1]
Conditions	mass density [kg/m3]	surface tension liquid-gas [mN/m]	viscosity [mPa·s]
–	868.21 ± 0.45	23.4 ± 0.47	0.591 ± 0.006

CCCC(=O)OCC [ethyl butanoate] + CO
[2]
Conditions	mass density [kg/m3]	surface tension liquid-gas [mN/m]	viscosity [mPa·s]
x1 = 0.05	–	21.86 ± 0.33	–
x1 = 0.101	–	22.03 ± 0.33	–
x1 = 0.104	–	–	0.511 ± 0.004
x1 = 0.15	–	22.22 ± 0.34	–
x1 = 0.1993	820.83 ± 0.18	–	–
x1 = 0.2	–	22.36 ± 0.34	–
x1 = 0.2036	–	–	0.517 ± 0.004
x1 = 0.299	–	22.65 ± 0.34	–
x1 = 0.3	832.61 ± 0.21	–	–
x1 = 0.3147	–	–	0.522 ± 0.004
x1 = 0.4	841.45 ± 0.24	22.85 ± 0.35	–
x1 = 0.4147	–	–	0.529 ± 0.004
x1 = 0.449	845.03 ± 0.26	–	–
x1 = 0.474	846.71 ± 0.26	–	–
x1 = 0.496	–	22.99 ± 0.35	–
x1 = 0.4995	848.3 ± 0.27	–	–
x1 = 0.5064	–	–	0.535 ± 0.005
x1 = 0.5997	853.94 ± 0.31	–	–
x1 = 0.605	–	23.12 ± 0.36	–
x1 = 0.6226	–	–	0.543 ± 0.005
x1 = 0.65	856.33 ± 0.32	–	–
x1 = 0.6976	–	–	0.551 ± 0.005
x1 = 0.7	–	23.18 ± 0.36	–
x1 = 0.7495	860.43 ± 0.36	–	–
x1 = 0.8	–	23.29 ± 0.36	–
x1 = 0.8054	–	–	0.565 ± 0.005
x1 = 0.883	–	23.35 ± 0.36	–
x1 = 0.899	865.48 ± 0.41	–	–
x1 = 0.9001	865.54 ± 0.41	–	–
x1 = 0.9004	–	–	0.577 ± 0.005
x1 = 0.9465	866.88 ± 0.43	–	–

CCCC(=O)OCC [ethyl butanoate] + O
[2]
Conditions	mass density [kg/m3]	surface tension liquid-gas [mN/m]	viscosity [mPa·s]
x2 = 0.0128	–	–	0.587 ± 0.006
x2 = 0.018	–	23.46 ± 0.37	–
x2 = 0.019	868.19 ± 0.45	–	–
x2 = 0.0319	–	–	0.584 ± 0.005
x2 = 0.033	868.46 ± 0.45	–	–
x2 = 0.039	868.71 ± 0.45	–	0.586 ± 0.005
x2 = 0.041	–	23.53 ± 0.37	–
x2 = 0.0488	–	–	0.584 ± 0.005
x2 = 0.055	–	23.6 ± 0.37	–
x2 = 0.056	868.98 ± 0.45	–	–
x2 = 0.0588	–	–	0.597 ± 0.006

CO [methanol]
[1]
Conditions	mass density [kg/m3]	surface tension liquid-gas [mN/m]	viscosity [mPa·s]
–	781.91 ± 0.14	21.68 ± 0.43	0.504 ± 0.004

CO [methanol] + O
[2]
Conditions	mass density [kg/m3]
x2 = 0.1031	799.74 ± 0.16
x2 = 0.2055	818.52 ± 0.18
x2 = 0.3014	836.97 ± 0.21
x2 = 0.4013	857.06 ± 0.24
x2 = 0.4994	877.48 ± 0.28
